Results as given in ChEMBL document CHEMBL1201862, “PubChem BioAssay data set” (2004).
Active and inactive are the calls of the source.

Legend:
[1] = target: Eukaryotic translation initiation factor 4H (Homo sapiens, UniProt Q15056); assay: human eIF4H binding inhibitors, primary screen, translation initiation inhibitor project, biochemical, uHTS, fluorescence polarization (AID 2012)
[2] = target: Polyadenylate-binding protein 1 (Homo sapiens, UniProt P11940); assay: PABP poly(A) RNA binding inhibitors, primary screen, biochemical, fluorescence polarization, uHTS (AID 2014)
Sequence of Polyadenylate-binding protein 1 (P11940 whole entry): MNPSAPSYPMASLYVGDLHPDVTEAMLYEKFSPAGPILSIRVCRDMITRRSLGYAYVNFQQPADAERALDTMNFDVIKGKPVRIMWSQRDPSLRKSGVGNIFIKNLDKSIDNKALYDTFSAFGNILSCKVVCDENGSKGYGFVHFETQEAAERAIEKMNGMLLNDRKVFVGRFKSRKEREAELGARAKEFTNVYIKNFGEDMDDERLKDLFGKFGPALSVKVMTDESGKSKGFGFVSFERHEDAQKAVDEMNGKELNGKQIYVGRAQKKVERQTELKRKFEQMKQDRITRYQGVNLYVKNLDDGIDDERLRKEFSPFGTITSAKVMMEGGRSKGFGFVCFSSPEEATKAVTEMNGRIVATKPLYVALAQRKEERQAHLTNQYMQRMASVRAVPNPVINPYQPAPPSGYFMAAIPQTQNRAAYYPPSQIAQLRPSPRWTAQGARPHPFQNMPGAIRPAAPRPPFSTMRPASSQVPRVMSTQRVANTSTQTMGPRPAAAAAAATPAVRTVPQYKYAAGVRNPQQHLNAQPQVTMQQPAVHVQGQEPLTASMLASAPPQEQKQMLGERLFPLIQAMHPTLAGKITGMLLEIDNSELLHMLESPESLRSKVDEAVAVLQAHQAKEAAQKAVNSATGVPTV

[3] = target: G-protein coupled receptor 55 (Homo sapiens, UniProt Q9Y2T6); assay: GPR55 agonists via beta-arrestin recruitment, primary screen, imaging, U2OS cells, beta-arrestin-GFP redistribution (AID 1961); type: functional
Sequence of G-protein coupled receptor 55 (Q9Y2T6 whole entry): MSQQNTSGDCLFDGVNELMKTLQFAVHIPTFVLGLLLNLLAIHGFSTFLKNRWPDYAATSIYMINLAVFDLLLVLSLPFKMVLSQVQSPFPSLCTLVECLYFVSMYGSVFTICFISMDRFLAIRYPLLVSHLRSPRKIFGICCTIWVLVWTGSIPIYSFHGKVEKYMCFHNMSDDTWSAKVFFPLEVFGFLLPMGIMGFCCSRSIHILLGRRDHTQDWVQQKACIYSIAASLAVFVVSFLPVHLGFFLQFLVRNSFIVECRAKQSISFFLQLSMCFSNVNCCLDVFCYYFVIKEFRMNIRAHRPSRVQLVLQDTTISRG

Tumor necrosis factor = Tumor necrosis factor (Homo sapiens, UniProt P01375); assay: TNFa-triggered NF-kB activation inhibitors, SAR follow-up, cell-based, revised (AID 2337); type: functional
Sequence of Tumor necrosis factor (P01375 whole entry, the tested form may be a part): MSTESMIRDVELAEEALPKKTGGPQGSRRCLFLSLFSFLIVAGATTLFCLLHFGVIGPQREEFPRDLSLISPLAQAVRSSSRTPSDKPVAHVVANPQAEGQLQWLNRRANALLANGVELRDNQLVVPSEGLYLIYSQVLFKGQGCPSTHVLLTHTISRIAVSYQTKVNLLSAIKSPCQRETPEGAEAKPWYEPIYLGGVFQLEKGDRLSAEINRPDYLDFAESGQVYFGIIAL

[4] = target: T1, Nucleotide-binding oligomerization domain-containing protein 1 (Homo sapiens, UniProt Q9Y239); assay: NOD1 signaling inhibitors, SAR follow-up, revised (AID 2333); type: functional
T1 sequence (Q9Y239 whole entry): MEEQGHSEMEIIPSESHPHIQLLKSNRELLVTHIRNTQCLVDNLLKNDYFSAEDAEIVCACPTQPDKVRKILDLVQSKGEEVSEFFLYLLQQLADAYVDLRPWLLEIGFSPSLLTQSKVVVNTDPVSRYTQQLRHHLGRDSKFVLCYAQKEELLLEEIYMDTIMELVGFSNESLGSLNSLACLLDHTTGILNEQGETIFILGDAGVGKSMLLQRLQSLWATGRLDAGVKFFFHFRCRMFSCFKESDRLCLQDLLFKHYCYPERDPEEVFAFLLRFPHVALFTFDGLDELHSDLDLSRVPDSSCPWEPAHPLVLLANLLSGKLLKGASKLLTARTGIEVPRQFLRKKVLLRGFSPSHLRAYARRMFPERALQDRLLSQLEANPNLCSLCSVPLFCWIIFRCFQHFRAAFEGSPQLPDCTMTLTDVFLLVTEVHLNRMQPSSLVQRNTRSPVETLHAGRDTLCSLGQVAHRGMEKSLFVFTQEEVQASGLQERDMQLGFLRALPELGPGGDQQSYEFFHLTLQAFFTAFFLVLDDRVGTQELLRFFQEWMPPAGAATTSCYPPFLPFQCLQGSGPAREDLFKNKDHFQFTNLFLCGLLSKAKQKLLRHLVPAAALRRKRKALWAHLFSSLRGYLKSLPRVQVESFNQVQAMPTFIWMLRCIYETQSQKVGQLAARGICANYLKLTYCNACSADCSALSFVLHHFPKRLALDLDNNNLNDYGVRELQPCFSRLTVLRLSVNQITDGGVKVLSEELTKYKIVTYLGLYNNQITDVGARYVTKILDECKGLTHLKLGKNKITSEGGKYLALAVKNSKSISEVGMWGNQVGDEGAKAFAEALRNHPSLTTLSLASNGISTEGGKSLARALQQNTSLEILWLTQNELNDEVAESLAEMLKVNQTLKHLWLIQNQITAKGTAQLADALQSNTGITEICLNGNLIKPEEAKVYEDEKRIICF

[5] = target: Nucleotide-binding oligomerization domain-containing protein 2 (Homo sapiens, UniProt Q9HC29); assay: PubChem AID 2334; type: functional
Sequence of Nucleotide-binding oligomerization domain-containing protein 2 (Q9HC29 whole entry, the tested form may be a part): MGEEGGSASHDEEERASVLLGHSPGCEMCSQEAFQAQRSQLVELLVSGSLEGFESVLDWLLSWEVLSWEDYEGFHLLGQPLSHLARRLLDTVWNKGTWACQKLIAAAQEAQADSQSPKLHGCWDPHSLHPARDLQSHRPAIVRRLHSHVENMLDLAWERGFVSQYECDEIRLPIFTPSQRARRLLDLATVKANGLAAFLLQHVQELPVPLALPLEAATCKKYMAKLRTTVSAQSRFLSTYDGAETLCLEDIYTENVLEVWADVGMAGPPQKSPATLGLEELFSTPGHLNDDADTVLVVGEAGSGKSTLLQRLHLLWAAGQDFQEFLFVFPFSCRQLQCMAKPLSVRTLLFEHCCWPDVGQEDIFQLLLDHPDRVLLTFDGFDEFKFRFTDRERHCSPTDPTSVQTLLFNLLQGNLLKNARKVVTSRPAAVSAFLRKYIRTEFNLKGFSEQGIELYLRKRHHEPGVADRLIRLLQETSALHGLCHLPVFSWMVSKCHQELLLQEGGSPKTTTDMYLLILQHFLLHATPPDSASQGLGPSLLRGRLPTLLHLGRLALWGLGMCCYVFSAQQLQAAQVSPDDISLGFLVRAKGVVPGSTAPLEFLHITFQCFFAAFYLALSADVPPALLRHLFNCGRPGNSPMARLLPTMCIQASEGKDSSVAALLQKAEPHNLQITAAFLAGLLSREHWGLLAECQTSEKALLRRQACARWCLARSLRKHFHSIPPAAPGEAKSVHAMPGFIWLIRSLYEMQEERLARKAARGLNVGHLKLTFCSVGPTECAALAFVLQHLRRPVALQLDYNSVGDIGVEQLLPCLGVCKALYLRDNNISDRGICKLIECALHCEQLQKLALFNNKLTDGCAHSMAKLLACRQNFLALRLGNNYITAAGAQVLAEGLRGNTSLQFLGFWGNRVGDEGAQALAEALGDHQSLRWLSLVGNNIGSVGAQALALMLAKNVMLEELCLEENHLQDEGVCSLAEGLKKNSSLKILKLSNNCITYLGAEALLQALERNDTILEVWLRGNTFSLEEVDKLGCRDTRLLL

HEK293 [6] = assay: cells; conditions: Homo sapiens
Bcl-2-like protein 10 = target: T2, Bcl-2-like protein 10 (Homo sapiens, UniProt Q9HD36); assay: displacers of TR3 peptide from Bcl-B, primary screen, selectivity assay for Bfl-1 inhibitor project, biochemical, fluorescence polarization, FITC-TR3 peptide (AID 748);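 also: fluorescence polarization from a fluorescein-labelled TR3 peptide binding purified Bcl-B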
T2 sequence (Q9HD36 whole entry): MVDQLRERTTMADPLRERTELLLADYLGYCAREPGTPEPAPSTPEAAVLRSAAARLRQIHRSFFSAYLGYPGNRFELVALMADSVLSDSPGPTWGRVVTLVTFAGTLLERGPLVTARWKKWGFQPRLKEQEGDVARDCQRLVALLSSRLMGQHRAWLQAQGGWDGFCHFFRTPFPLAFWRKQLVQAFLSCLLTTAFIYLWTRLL

Aminopeptidase N = target: T3, Aminopeptidase N (Plasmodium falciparum FcB1/Columbia, UniProt O96935); assay: P. falciparum M1AAP inhibitors, biochemical, fluorogenic H-Leu-NHMec substrate, 1536-well (AID 1445); design: species or system Plasmodium falciparum 3D7, 3D7
T3 sequence (O96935 whole entry): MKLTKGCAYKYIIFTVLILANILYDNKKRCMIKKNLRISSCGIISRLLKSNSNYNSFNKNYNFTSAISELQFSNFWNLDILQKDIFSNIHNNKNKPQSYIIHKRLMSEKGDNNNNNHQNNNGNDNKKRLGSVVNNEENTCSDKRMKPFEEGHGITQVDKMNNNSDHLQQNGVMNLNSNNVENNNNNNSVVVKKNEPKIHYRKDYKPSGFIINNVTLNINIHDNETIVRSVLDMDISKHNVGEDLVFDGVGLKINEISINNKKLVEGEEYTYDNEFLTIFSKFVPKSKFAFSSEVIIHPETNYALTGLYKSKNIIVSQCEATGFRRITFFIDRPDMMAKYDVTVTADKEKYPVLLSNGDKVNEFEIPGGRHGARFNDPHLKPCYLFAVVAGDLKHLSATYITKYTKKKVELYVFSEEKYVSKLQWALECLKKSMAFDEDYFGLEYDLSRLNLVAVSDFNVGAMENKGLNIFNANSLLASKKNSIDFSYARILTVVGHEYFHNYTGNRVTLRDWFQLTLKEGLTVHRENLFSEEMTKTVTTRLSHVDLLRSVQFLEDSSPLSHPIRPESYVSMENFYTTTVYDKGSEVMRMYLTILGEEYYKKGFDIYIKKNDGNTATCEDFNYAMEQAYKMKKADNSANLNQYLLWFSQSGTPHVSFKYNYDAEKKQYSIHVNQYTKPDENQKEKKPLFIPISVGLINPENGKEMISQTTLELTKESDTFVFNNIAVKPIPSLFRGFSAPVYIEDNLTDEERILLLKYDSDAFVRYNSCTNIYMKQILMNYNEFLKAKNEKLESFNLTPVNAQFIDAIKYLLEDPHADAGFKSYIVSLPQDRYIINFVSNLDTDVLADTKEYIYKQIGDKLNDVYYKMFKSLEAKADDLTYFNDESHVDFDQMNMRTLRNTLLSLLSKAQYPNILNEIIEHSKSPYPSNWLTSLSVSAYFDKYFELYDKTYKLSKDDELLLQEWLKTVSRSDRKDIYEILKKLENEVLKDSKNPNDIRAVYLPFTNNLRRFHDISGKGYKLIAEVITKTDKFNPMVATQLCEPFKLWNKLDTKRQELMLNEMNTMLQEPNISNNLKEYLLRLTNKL

[7] = target: FAD-linked sulfhydryl oxidase ALR (Homo sapiens, UniProt P55789); assay: inhibitors of human ALR sulfhydryl oxidase, dose response, biochemical, H2O2 detection, luminescence, cherry-pick (AID 493248)
Sequence of FAD-linked sulfhydryl oxidase ALR (P55789 whole entry): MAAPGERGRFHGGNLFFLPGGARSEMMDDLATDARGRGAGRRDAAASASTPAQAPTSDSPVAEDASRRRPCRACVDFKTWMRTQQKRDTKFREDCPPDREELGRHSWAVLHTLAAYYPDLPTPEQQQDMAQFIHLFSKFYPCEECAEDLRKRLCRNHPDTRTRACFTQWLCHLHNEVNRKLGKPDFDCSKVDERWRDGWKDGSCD

[8] = target: T4, Heat shock factor protein 1 (Mus musculus, UniProt P38532); assay: inhibition of MG132-induced HSE-luciferase signal, confirmation, cell-based, NIH3T3, luminescence, dose retest (AID 2382); type: functional;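 also: NIH3T3 fibroblasts with HSF1-driven luciferase reporter stressed by proteasome inhibitor MG132; luminescence from HSF1-driven luciferase expression after 8 hours of MG132 stress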
T4 sequence (P38532 whole entry): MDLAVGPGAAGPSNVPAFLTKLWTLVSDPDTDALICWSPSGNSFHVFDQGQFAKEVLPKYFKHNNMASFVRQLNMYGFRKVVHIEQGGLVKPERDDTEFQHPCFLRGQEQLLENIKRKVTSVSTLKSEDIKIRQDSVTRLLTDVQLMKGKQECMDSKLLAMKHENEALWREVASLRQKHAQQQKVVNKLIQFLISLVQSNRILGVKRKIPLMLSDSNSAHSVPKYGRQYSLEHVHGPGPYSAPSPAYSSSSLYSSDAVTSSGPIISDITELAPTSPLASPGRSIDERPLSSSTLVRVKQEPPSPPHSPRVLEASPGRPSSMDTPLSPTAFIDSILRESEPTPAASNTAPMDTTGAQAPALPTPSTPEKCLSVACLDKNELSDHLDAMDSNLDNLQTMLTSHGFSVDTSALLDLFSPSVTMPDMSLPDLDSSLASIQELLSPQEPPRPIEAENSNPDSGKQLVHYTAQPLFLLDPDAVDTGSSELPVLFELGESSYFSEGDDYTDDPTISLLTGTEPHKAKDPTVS

X-box-binding protein 1 = target: T5, X-box-binding protein 1 (Homo sapiens, UniProt P17861); type: functional, Cricetulus griseus;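 also: confirmatory dose-response counter-screen serving a CHOP assay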
T5 sequence (P17861 whole entry): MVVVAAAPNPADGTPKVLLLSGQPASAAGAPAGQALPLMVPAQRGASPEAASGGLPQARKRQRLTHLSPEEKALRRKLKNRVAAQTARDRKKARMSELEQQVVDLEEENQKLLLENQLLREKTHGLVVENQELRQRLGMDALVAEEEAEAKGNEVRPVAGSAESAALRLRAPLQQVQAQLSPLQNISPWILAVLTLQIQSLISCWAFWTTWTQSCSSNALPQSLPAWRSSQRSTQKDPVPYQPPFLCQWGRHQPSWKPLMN

HEK293 [9] = assay: inhibitors of LMP1-driven NF-kB reporter, dose response, cell-based, HEK293, luciferase, cherry-pick (AID 588343); type: functional; conditions: Homo sapiens
Large T antigen = Large T antigen (Simian virus 40, UniProt P03070); type: functional, Betapolyomavirus macacae;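 also: Confirmatory-stage PubChem screen for compounds that inhibit SV40 T antigen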
[10] = target: Glucose-6-phosphate 1-dehydrogenase (Homo sapiens, UniProt P11413); assay: human G6PD enzyme inhibitors, dose response, selectivity assay for P. falciparum G6PD inhibitor project, biochemical, fluorescence (AID 504792); type: functional
Sequence of Glucose-6-phosphate 1-dehydrogenase (P11413 whole entry): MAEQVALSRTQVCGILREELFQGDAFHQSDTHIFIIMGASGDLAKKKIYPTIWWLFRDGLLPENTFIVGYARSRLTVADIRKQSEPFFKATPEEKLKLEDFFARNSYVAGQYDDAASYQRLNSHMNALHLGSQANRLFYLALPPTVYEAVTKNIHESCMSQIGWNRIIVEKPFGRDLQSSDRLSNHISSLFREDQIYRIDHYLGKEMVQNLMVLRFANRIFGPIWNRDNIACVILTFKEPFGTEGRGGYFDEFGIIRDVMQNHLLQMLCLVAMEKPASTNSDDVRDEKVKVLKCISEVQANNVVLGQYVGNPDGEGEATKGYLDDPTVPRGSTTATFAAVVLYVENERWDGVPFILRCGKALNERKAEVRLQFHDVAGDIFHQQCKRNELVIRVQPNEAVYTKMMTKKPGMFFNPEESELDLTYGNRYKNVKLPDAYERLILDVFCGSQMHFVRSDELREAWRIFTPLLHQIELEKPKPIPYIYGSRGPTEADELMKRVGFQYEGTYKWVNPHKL

Estrogen receptor = target: T6, Estrogen receptor (Homo sapiens, UniProt P03372);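 also: potency for inhibiting coactivator peptide recruitment to the receptor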
T6 sequence (P03372 whole entry): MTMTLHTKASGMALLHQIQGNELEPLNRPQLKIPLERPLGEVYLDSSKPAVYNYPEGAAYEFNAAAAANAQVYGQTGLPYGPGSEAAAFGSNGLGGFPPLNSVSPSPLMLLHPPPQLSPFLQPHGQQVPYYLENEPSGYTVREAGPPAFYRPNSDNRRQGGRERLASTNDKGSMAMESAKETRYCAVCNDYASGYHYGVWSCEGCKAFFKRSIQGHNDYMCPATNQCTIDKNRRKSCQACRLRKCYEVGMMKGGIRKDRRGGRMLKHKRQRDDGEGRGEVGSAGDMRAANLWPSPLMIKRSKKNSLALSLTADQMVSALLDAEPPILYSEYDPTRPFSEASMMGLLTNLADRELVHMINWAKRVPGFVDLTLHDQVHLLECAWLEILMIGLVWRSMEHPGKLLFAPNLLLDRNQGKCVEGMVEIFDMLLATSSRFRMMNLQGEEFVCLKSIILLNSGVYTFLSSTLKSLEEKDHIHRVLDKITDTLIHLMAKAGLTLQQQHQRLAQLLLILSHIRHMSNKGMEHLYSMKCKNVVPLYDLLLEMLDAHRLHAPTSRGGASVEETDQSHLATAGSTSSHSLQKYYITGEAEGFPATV

[11] = target: Protein-tyrosine kinase 2-beta (Homo sapiens, UniProt Q14289);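 also: potency of inhibitors of PYK2 kinase phosphorylation of poly-GT substrate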
Sequence of Protein-tyrosine kinase 2-beta (Q14289 whole entry): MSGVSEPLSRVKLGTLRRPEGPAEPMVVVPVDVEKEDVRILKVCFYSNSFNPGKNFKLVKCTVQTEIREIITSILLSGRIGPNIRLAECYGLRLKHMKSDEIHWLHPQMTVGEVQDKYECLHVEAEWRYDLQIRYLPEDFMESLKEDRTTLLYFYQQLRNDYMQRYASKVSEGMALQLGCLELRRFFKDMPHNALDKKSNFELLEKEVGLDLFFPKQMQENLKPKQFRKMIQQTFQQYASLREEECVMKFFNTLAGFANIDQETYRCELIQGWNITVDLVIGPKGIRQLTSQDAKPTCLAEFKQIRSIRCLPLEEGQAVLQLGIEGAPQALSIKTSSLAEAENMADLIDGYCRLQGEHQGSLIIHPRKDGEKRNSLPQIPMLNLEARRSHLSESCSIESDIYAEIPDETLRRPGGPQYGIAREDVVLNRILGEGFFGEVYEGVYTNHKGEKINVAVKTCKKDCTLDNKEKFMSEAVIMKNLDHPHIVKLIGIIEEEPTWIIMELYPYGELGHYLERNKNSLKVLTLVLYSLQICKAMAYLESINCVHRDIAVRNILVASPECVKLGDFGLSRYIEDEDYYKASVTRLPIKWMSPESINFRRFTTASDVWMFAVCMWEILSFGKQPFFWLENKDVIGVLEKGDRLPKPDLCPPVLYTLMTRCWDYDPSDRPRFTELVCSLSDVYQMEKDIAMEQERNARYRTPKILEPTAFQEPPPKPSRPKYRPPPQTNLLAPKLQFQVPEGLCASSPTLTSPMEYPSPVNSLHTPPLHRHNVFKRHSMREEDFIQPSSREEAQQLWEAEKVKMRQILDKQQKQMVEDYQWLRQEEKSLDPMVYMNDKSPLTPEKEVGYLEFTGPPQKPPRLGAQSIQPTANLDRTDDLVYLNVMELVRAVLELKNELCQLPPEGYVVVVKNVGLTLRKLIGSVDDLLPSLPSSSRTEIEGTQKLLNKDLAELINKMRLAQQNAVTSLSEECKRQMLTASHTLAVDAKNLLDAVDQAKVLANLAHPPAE

[12] = Artemis endonuclease inhibitor potency, dose response, biochemical, fluorescence intensity (AID 720701); type: functional;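 also: Artemis endonuclease enzyme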
Estrogen receptor beta [13] = target: T7, Estrogen receptor beta (Homo sapiens, UniProt Q92731);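 also: recombinant ER-beta bound to coactivator SRC1 peptide in presence of estradiol agonist; inhibitors block coactivator peptide binding and lower the FRET signal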
T7 sequence (Q92731 whole entry): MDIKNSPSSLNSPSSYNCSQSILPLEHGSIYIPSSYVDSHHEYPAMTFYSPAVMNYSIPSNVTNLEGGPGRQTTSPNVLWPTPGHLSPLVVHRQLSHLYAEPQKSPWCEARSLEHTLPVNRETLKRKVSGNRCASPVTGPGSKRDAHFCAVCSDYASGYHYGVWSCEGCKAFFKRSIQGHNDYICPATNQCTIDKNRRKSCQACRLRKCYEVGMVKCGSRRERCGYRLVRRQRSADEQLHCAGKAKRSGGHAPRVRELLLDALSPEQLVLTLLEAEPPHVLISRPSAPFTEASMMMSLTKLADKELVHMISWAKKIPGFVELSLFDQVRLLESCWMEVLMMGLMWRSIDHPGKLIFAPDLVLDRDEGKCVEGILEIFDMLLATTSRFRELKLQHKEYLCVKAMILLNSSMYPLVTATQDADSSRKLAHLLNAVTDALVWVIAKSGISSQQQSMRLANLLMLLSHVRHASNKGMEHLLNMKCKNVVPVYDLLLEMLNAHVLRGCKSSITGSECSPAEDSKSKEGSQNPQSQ

Estrogen receptor beta [14] = target: T7, Estrogen receptor beta; assay: ERβ–SRC-3 coactivator interaction inhibitors, confirmation, orthogonal assay, biochemical, ELISA, streptavidin-HRP readout (AID 1060)

With `C[N+]1(C)C2CCC1CC(OC(=O)c1ccco1)C2` (stereo unspecified) the IC50 [1] was > 100 µM (inactive) and the IC50 [2] was 7.77 µM (active).
In the case of `CN1/C(=C\C(=O)COC(=O)c2ccco2)C(C)(C)c2ccccc21`, the EC50 [3] was 5.59 µM (active).
For `Cc1ccccc1C(=O)Nc1nc2ccccc2n1Cc1ccc(Cl)cc1`, the IC50 (Tumor necrosis factor) was > 20 µM (inactive), the IC50 [4] was > 20 µM (inactive) and the IC50 [5] was > 20 µM (inactive). For the same compound, the IC50 (HEK293 [6]) was > 20 µM (inactive).
With `Cc1cccn2c(=O)c3cc(C(=O)NCC4CCCO4)c(=N)n(Cc4cccnc4)c3nc12` (stereo unspecified) the IC50 (Bcl-2-like protein 10) was > 25 µM (inactive).
With `O=C1NC(=S)NC(=O)C1=NNc1cc2c(cc1[N+](=O)[O-])OCO2` the IC50 (Aminopeptidase N) was 26.9 µM (active).
In the case of `CCN(CCNS(=O)(=O)c1ccc2nc(O)sc2c1)c1ccccc1`, the AC50 [7] was 1.17 µM (active).
For `COc1ccc(CCNC(=O)c2nnn(-c3ccc4c(c3)OCCO4)c2N)cc1OC`, the EC50 [8] was 0.44 µM (active), the “Absolute IC50 (XBP1)” value (X-box-binding protein 1) was 10 µM and the AC50 (HEK293 [9]) was 0.786 µM (active).
In the case of `O=C(c1ccco1)N1CCN=C1SCc1cccnc1`, the AC50 [7] was 1.19 µM (active).
For `CC1(c2ccc(OC(F)F)cc2)NC(=O)N(CC(=O)Nc2ccc(S(N)(=O)=O)cc2)C1=O` (stereo unspecified), the IC50 (Aminopeptidase N) was 28.3 µM (active).
For `CC(=O)OC(c1nc2ccccc2c(=O)n1C1CC2(OC1=O)c1ccccc1N1C(=O)C(C)(C)N(O)C12)C(C)C` (stereo unspecified), the EC50 [3] was 7.35 µM (active).
For `O=C(CN1CCN(c2ccc(O)cc2)CC1)Nc1cc(S(=O)(=O)N2CCOCC2)ccc1Cl`, the IC50 [1] was 72.2 µM (active), the IC50 (Large T antigen) was 17 µM (active) and the IC50 [2] was > 100 µM (inactive). The IC50 [10] was > 80 µM (inactive).
With `O=C(Nc1ccc(N2CCCC2)cc1)C(c1ccccc1)c1ccccc1` the IC50 (Bcl-2-like protein 10) was 18.9 µM (active), the IC50 (Estrogen receptor) was 7.09 µM (active) and the IC50 [11] was 11.6 µM (not active). For the same compound, the IC50 [12] was > 20 µM (inactive).
In the case of `O=C(Nc1ccc(Cl)c(Cl)c1)c1ccc(CN2CCc3ccccc3C2)cc1`, the IC50 (Tumor necrosis factor) was > 20 µM (inactive), the IC50 [4] was 0.891 µM (active) and the IC50 [5] was > 20 µM (inactive). For the same compound, the IC50 (HEK293 [6]) was 8.89 µM (active).
For `O=C(COC(=O)CN1C(=O)c2ccccc2C1=O)Nc1ncc(Cl)cc1Cl`, the IC50 (Bcl-2-like protein 10) was 41.5 µM (active), the IC50 (Estrogen receptor beta [13]) was 11.1 µM (active) and the IC50 (Estrogen receptor beta [14]) was < 77 µM (not active).
With `O=C(C1CC1)N1CCc2cc(S(=O)(=O)N3CCN(c4ccc([N+](=O)[O-])cc4)CC3)ccc21` the IC50 (Tumor necrosis factor) was 12.4 µM (active), the IC50 [4] was 6.5 µM (active) and the IC50 [5] was 8.44 µM (active). The IC50 (HEK293 [6]) was > 20 µM (inactive).
With `Cc1ccc(/C=N/NC(=O)CSCc2ccc(Cl)cc2)cc1` the “Absolute IC50 (XBP1)” value (X-box-binding protein 1) was 10 µM.
